Source: patent US9814714B2, “Kinase modulation, and indications therefor” (Plexxikon Inc., priority 2015, dated 2017)

Assays:
BRAF_V600G = BRAF_V600G (Homo sapiens, UniProt P15056, V600G); experiment: RAF kinase biochemical assay, BRAF V600G; conditions: Table 3; ATP 100 μM
Protocol: (§1) BRAF proteins were produced in insect cells at Plexxikon Inc. as N-terminally His-tagged fragments encompassing the kinase domain.
(§2) 1) Test compounds in DMSO were serially diluted and plated into 384-well assay plates at 1 μL/well.
(§3) 2) Added were 15 μL/well of RAF enzyme and biotinylated-MEK1 substrate in kinase buffer.
(§4) 3) Added were 4 μL of ATP (500 μM) in kinase buffer.
(§5) 5) After a brief spin down, the plate was incubated at about room temperature for 40-50 minutes. 6) Added was 5 μL of Stop buffer at final EDTA 20 mM; anti-phospho-MEK1 1:2,500; donor/acceptor beads 3 μg/mL. 7) After brief spin down, the plate was incubated at room temperature for about 3 hours. 8) The plate was read on the Envision multilabel plate reader (Perkin Elmer). […] 2. Results

ML-2 cells = experiment: Growth assay (CellTiter-Glo), ML-2; assay type: cell-based; conditions: Homo sapiens, ML-2, 72 h; acute myelomonocytic leukemia; BRAF WT, KRAS-A146T; 3 days
Source text: In order to determine the effects of Formula I on proliferation, a growth assay was established using melanoma cells (A375 and COLO829) and colorectal carcinoma cells (COLO205, HT-29) which each express the BRAFV600E mutation. To show selectivity over wild-type BRAF, several BRAF wild-type cell lines (K562, NOMO-1, MV-4-11 and ML-2) were also examined in the growth assay. The growth assay implemented the Promega CellTiter-Glo Luminescent Cell viability assay, which gives a luminescent readout that is proportional to the amount of ATP present in a cell sample. As ATP levels directly correlate with the number of viable cells, the luminescent signal can be used to determine the potency of Formula I to block the proliferation of the cell lines of interest.
1. 3,000 cells were plated in each well for cell lines A375, COLO205, COLO829, HT-29, and SK-MEL-3. 25,000 cells were plated in each well for cell lines K562, ML-2, MV-4-11, and
NOMO-1 of a 96-well tissue-culture-treated plate (Corning #3610) in a 50 μL volume. Cells were incubated overnight at 37° C.
2. Each test compound was plated as an 8-point titration, using 1:3 dilutions in DMSO. The maximum concentration was about 5 mM. Dilute DMSO and test compound of Formula I 1:250 in growth media.
3. […]
4. […] Luminescence was measured on a Tecan Safire plate reader. […]

BRAF_V600R = BRAF_V600R (Homo sapiens, UniProt P15056, V600R); experiment: RAF kinase biochemical assay, BRAF V600R; conditions: Table 3; ATP 100 μM
Chain of BRAF_V600R (P15056 448-723 V600R): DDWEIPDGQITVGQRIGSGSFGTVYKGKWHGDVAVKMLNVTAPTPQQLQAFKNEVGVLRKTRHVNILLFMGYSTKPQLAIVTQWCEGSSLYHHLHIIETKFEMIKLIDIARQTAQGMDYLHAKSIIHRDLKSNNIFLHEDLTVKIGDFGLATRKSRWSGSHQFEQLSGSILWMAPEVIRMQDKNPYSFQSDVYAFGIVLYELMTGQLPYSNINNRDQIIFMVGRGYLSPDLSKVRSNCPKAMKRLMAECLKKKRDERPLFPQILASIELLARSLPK
Protocol: as §1, §2, §3, §4, §5

Chain of BRAF_V600G (P15056 432-726 V600G): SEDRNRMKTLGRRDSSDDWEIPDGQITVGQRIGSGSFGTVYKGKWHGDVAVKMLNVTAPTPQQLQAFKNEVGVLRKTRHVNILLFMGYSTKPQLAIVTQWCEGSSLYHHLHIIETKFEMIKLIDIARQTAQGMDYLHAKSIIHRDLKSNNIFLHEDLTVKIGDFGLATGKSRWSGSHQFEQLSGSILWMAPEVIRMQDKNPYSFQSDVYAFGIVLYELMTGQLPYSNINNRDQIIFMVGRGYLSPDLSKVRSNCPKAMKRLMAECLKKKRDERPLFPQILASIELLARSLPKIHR

Compound `O=C(c1c(F)ccc(NS(=O)(=O)N2CC[C@@H](F)C2)c1F)c1c[nH]c2ncc(-c3cnc(C4CC4)nc3)cc12` [Formula I, (3R)—N-[3-[5-(2-cyclopropylpyrimidin-5-yl)-1H-pyrrolo[2,3-b]pyridine-3-carbonyl]-2,4-difluorophenyl]-3-fluoropyrrolidine-1-sulfonamide] has an IC50 (BRAF_V600G) of 6.3 nM, an IC50 (ML-2 cells) of over 10000 nM and an IC50 (BRAF_V600R) of 3.5 nM.
